# Measured values published in patent US7235377B2, “Global test of the hemostatic system” (The University of Vermont and State Agriculture College, priority 2003, dated 2007).
# Experiments:
# whole blood = assay: Tissue factor initiated whole blood assay, thrombin (TAT) at 20 minutes, historical record of treated individuals/blood; parameters: species or system human
# [1] = INR of individuals on coumadin therapy; assay type: in vivo, human
# Procedure: Thrombin is illustrated for the group of 13 healthy individuals (♦/⋄, column 1), with the 6-month time period for subject 10 (⋄) illustrated. […] An historical record of whole blood data for individuals on coumadin therapy (●/∘) is seen in column 3. […] Individuals with hemophilia A; or induced hemophilia B; with (Δ) and without (▴) in vitro replacement were reevaluated for their 20 minute time point and are seen in column 4. Two individuals with factor XI deficiency (▪) at low tissue factor are shown in column 5. Thrombin generation from blood treated with anti platelet IIbIIIa therapeutics (*), ReoPro and Integrellin are represented in column 6.
# [2] = one individual on coumadin therapy over a 6 month time period
compound,measurement,setting,value
CC(=O)CC(c1ccccc1)c1c(O)c2ccccc2oc1=O (stereo not drawn) [Coumadin],"TAT level, Mean","whole blood; mean per group, repeated measures on individuals averaged, 20 min",273.5
same,mean thrombin,whole blood; [2],166.6 ± 121.3 nM
same,variation of thrombin levels,whole blood; [2],approximately 325 nM
same,thrombin levels (range),"whole blood; one individual on coumadin therapy, stable INR, studied 10 times over 6 months, 20 min",9.3 to 334.7 nM
same,INR,"[1]; group of 7 individuals stably anticoagulated on coumadin, studied once",2.3±0.5
same,INR,[1]; one individual on coumadin therapy studied 10 times over 6 months,2.1±0.4
